Read-outs that look alike come from different tables or passages of the source. Numbered stars: 1 amine (or outer) side, 2 acyl side, 3 side chain; on linkers, the order of the positions; unused ones are H or OH. Ends that are not written are not given here. Peptide text beside a SMILES is read from it. Cysteamide = C(CS[*:3])N[*:1]

One series deals with HS-68 and Hela cells. Put plainly: Toxicity of CADY variants, MTT cell viability assay (Table 1). It counts as cell-based. The conditions noted are these: for toxicity: at concentration of 100 µM. As for the experimental part: The toxicity of CADY peptides has been investigated on different cell lines. Cells were incubated in the presence of increasing concentrations of CADY (from 0.1 µM to 1 mM) for 12 hrs and cell viability was estimated using MTT assay.

Series [1] deals with short 17-residues peptide (cargo used with CADY-2). Nature of the series: steady state Trp fluorescence quenching; fixed CADY (0.1 uM) titrated with cargo peptide; quadratic fit.
The mark [2] stands for this setting: free peptide, MTT, read-out: free EC50.

As to `CC(C)C[C@H](NC(=O)CN)C(=O)N[C@@H](Cc1c[nH]c2ccccc12)C(=O)N[C@@H](CCCNC(=N)N)C(=O)N[C@@H](C)C(=O)N[C@@H](CC(C)C)C(=O)N[C@@H](Cc1c[nH]c2ccccc12)C(=O)N[C@@H](CCCNC(=N)N)C(=O)N[C@@H](C)C(=O)N[C@@H](CC(C)C)C(=O)N[C@@H](Cc1c[nH]c2ccccc12)C(=O)N[C@@H](CCCNC(=N)N)C(=O)N[C@@H](CO)C(=O)N[C@@H](CC(C)C)C(=O)N[C@@H](Cc1c[nH]c2ccccc12)C(=O)N[C@@H](CCCCN)C(=O)N[C@@H](CC(C)C)C(=O)N[C@@H](CCCCN)C(=O)N[C@@H](CCCNC(=N)N)C(=O)N[C@@H](CCCCN)C(=O)N[C@H](C(=O)NCCS)C(C)C` [CADY-1b] (HELM PEPTIDE1{G.L.W.R.A.L.W.R.A.L.W.R.S.L.W.K.L.K.R.K.V.[SCCN[*:1]]}$$$$V2.0), the 50% effective concentration (EC50) turned out to be 380 µM in the series on HS-68 and Hela cells (free peptide, MTT, listed as CADY-2d, read-out: free EC50); 500 µM in the series with HS-68 and Hela cells (setting [2]). As for `CC(C)C[C@H](NC(=O)CN)C(=O)N[C@@H](Cc1c[nH]c2ccccc12)C(=O)N[C@@H](CCCNC(=N)N)C(=O)N[C@@H](C)C(=O)N[C@@H](CC(C)C)C(=O)N[C@@H](Cc1c[nH]c2ccccc12)C(=O)N[C@@H](CCCNC(=N)N)C(=O)N[C@@H](C)C(=O)N[C@@H](CC(C)C)C(=O)N[C@@H](CCCNC(=N)N)C(=O)N[C@@H](CO)C(=O)N[C@@H](CC(C)C)C(=O)N[C@@H](Cc1c[nH]c2ccccc12)C(=O)N[C@@H](CCCCN)C(=O)N[C@@H](CC(C)C)C(=O)N[C@@H](CCCCN)C(=O)N[C@@H](CCCNC(=N)N)C(=O)N[C@@H](CCCCN)C(=O)N[C@H](C(=O)NCCS)C(C)C` [CADY-1c] (HELM PEPTIDE1{G.L.W.R.A.L.W.R.A.L.R.S.L.W.K.L.K.R.K.V.[SCCN[*:1]]}$$$$V2.0), in the series with HS-68 and Hela cells (setting [2]), the 50% effective concentration (EC50) is 450 µM. The same measure, in the same setting: the value for `CC(C)C[C@H](NC(=O)CN)C(=O)N[C@@H](Cc1c[nH]c2ccccc12)C(=O)N[C@@H](CCCNC(=N)N)C(=O)N[C@@H](C)C(=O)N[C@@H](CC(C)C)C(=O)N[C@@H](Cc1c[nH]c2ccccc12)C(=O)N[C@@H](CCCNC(=N)N)C(=O)NCC(=O)N[C@@H](CC(C)C)C(=O)N[C@@H](CCCNC(=N)N)C(=O)N[C@@H](CO)C(=O)N[C@@H](CC(C)C)C(=O)N[C@@H](Cc1c[nH]c2ccccc12)C(=O)N[C@@H](CCCCN)C(=O)N[C@@H](CC(C)C)C(=O)N[C@@H](CCCCN)C(=O)N[C@@H](CCCNC(=N)N)C(=O)N[C@@H](CCCCN)C(=O)N[C@H](C(=O)NCCS)C(C)C` [CADY-1d] (HELM PEPTIDE1{G.L.W.R.A.L.W.R.G.L.R.S.L.W.K.L.K.R.K.V.[SCCN[*:1]]}$$$$V2.0) was 500 µM.

In the case of `CC(C)C[C@H](NC(=O)CN)C(=O)N[C@@H](Cc1c[nH]c2ccccc12)C(=O)N[C@@H](CCCNC(=N)N)C(=O)N[C@@H](C)C(=O)N[C@@H](CC(C)C)C(=O)N[C@@H](Cc1c[nH]c2ccccc12)C(=O)N[C@@H](CCCNC(=N)N)C(=O)NCC(=O)N[C@@H](CC(C)C)C(=O)N[C@@H](CCCNC(=N)N)C(=O)N[C@@H](CO)C(=O)N[C@@H](CC(C)C)C(=O)N[C@@H](Cc1c[nH]c2ccccc12)C(=O)N[C@@H](CCCCN)C(=O)N[C@@H](CCCCN)C(=O)N[C@@H](CCCCN)C(=O)N[C@@H](CCCNC(=N)N)C(=O)N[C@@H](CCCCN)C(=O)N[C@H](C(=O)NCCS)C(C)C` [CADY-1e] (HELM PEPTIDE1{G.L.W.R.A.L.W.R.G.L.R.S.L.W.K.K.K.R.K.V.[SCCN[*:1]]}$$$$V2.0), in the series with HS-68 and Hela cells (setting [2]), the EC50 amounted to 340 µM.

With `CC(=O)NCC(=O)N[C@@H](CC(C)C)C(=O)N[C@@H](Cc1c[nH]c2ccccc12)C(=O)N[C@@H](CCCNC(=N)N)C(=O)N[C@@H](C)C(=O)N[C@@H](CC(C)C)C(=O)N[C@@H](Cc1c[nH]c2ccccc12)C(=O)N[C@@H](CCCNC(=N)N)C(=O)N[C@@H](C)C(=O)N[C@@H](CC(C)C)C(=O)N[C@@H](Cc1c[nH]c2ccccc12)C(=O)N[C@@H](CCCNC(=N)N)C(=O)N[C@@H](CO)C(=O)N[C@@H](CC(C)C)C(=O)N[C@@H](Cc1c[nH]c2ccccc12)C(=O)N[C@@H](CCCCN)C(=O)N[C@@H](CC(C)C)C(=O)N[C@@H](CCCCN)C(=O)N[C@@H](Cc1c[nH]c2ccccc12)C(=O)N[C@@H](CCCCN)C(=O)N[C@H](C(=O)NCCS)C(C)C` [CADY-2] (HELM PEPTIDE1{[ac].G.L.W.R.A.L.W.R.A.L.W.R.S.L.W.K.L.K.W.K.V.[SCCN[*:1]]}$$$$V2.0), the concentration giving a half-maximal response (EC50) in the series on HS-68 and Hela cells (setting [2]) is 230 µM. The same measure, in the same setting: the value for `CC(C)C[C@H](NC(=O)CN)C(=O)N[C@@H](Cc1c[nH]c2ccccc12)C(=O)N[C@@H](CCCNC(=N)N)C(=O)N[C@@H](C)C(=O)N[C@@H](CC(C)C)C(=O)N[C@@H](Cc1c[nH]c2ccccc12)C(=O)N[C@@H](CCCNC(=N)N)C(=O)N[C@@H](C)C(=O)N[C@@H](CC(C)C)C(=O)N[C@@H](Cc1c[nH]c2ccccc12)C(=O)N[C@@H](CCCNC(=N)N)C(=O)N[C@@H](CO)C(=O)N[C@@H](CC(C)C)C(=O)N[C@@H](Cc1c[nH]c2ccccc12)C(=O)N[C@@H](CCCCN)C(=O)N[C@@H](CO)C(=O)N[C@@H](CCCCN)C(=O)N[C@@H](CCCNC(=N)N)C(=O)N[C@@H](CCCCN)C(=O)N[C@H](C(=O)NCCS)C(C)C` [CADY-2b] (HELM PEPTIDE1{G.L.W.R.A.L.W.R.A.L.W.R.S.L.W.K.S.K.R.K.V.[SCCN[*:1]]}$$$$V2.0) was 280 µM. As for `CC(C)C[C@H](NC(=O)CN)C(=O)N[C@@H](Cc1c[nH]c2ccccc12)C(=O)N[C@@H](CCCNC(=N)N)C(=O)N[C@@H](C)C(=O)N[C@@H](CC(C)C)C(=O)N[C@@H](Cc1c[nH]c2ccccc12)C(=O)N[C@@H](CCCNC(=N)N)C(=O)N[C@@H](C)C(=O)N[C@@H](CC(C)C)C(=O)N[C@@H](Cc1c[nH]c2ccccc12)C(=O)N[C@@H](CCCNC(=N)N)C(=O)N[C@@H](CO)C(=O)N[C@@H](CC(C)C)C(=O)N[C@@H](Cc1c[nH]c2ccccc12)C(=O)N[C@@H](CCCCN)C(=O)N[C@@H](CCCCN)C(=O)N[C@@H](CCCCN)C(=O)N[C@@H](CCCNC(=N)N)C(=O)N[C@@H](CCCCN)C(=O)N[C@H](C(=O)NCCS)C(C)C` [CADY-2c] (HELM PEPTIDE1{G.L.W.R.A.L.W.R.A.L.W.R.S.L.W.K.K.K.R.K.V.[SCCN[*:1]]}$$$$V2.0), the concentration giving a half-maximal response (EC50) in the series on HS-68 and Hela cells (setting [2]) was determined as 340 µM.

For `CC(C)C[C@H](NC(=O)CN)C(=O)N[C@@H](Cc1c[nH]c2ccccc12)C(=O)N[C@@H](CCCNC(=N)N)C(=O)N[C@@H](C)C(=O)N[C@@H](CC(C)C)C(=O)N[C@@H](Cc1c[nH]c2ccccc12)C(=O)N[C@@H](CCCNC(=N)N)C(=O)N[C@@H](CC(C)C)C(=O)N[C@@H](CC(C)C)C(=O)N[C@@H](CCCNC(=N)N)C(=O)N[C@@H](CO)C(=O)N[C@@H](CC(C)C)C(=O)N[C@@H](Cc1c[nH]c2ccccc12)C(=O)N[C@@H](CCCNC(=N)N)C(=O)N[C@@H](CC(C)C)C(=O)N[C@@H](CC(C)C)C(=O)N[C@@H](Cc1c[nH]c2ccccc12)C(=O)N[C@@H](CO)C(=O)N[C@@H](CCC(N)=O)C(=O)N1CCC[C@H]1C(=O)N[C@@H](CCCCN)C(=O)N[C@@H](CCCCN)C(=O)N[C@@H](CCCCN)C(=O)N[C@@H](CCCNC(=N)N)C(=O)N[C@@H](CCCCN)C(=O)N[C@H](C(=O)NCCS)C(C)C` [CADY-2e] (HELM PEPTIDE1{G.L.W.R.A.L.W.R.L.L.R.S.L.W.R.L.L.W.S.Q.P.K.K.K.R.K.V.[SCCN[*:1]]}$$$$V2.0), the EC50 with HS-68 and Hela cells (setting [2]) came out at 430 µM. For `CC(=O)NCC(=O)N[C@@H](CC(C)C)C(=O)N[C@@H](Cc1c[nH]c2ccccc12)C(=O)N[C@@H](CCCNC(=N)N)C(=O)N[C@@H](C)C(=O)N[C@@H](CC(C)C)C(=O)N[C@@H](Cc1c[nH]c2ccccc12)C(=O)N[C@@H](CCCNC(=N)N)C(=O)N[C@@H](CC(C)C)C(=O)N[C@@H](CC(C)C)C(=O)N[C@@H](CCCNC(=N)N)C(=O)N[C@@H](CO)C(=O)N[C@@H](CC(C)C)C(=O)N[C@@H](Cc1c[nH]c2ccccc12)C(=O)N[C@@H](CCCNC(=N)N)C(=O)N[C@@H](CC(C)C)C(=O)N[C@@H](CC(C)C)C(=O)N[C@@H](Cc1c[nH]c2ccccc12)C(=O)N[C@@H](CCCCN)C(=O)N[C@@H](C)C(=O)NCCSS[C@H]1CC[C@@]2(C)C(=CC[C@H]3[C@@H]4CC[C@H]([C@H](C)CCCC(C)C)[C@@]4(C)CC[C@@H]32)C1` [CADY-S2] (HELM PEPTIDE1{[ac].G.L.W.R.A.L.W.R.L.L.R.S.L.W.R.L.L.W.K.A.[CC(C)CCC[C@@H](C)[C@H]1CC[C@H]2[C@@H]3CC=C4C[C@@H](SSCCN[*:1])CC[C@]4(C)[C@H]3CC[C@]12C]}$$$$V2.0; N-terminus assumed), in the series with HS-68 and Hela cells (12 h), the midpoint of the response, the EC50, lay at 250 µM. For the molecule “WEAALAEALAEALAEHLAEALAEALEALAA [GALA, reference compound]”, in the series on HS-68 and Hela cells, the toxicity is given as over 70%.

For “WEAKLAKALAKALAKHLAKALAKALKACEA [KALA, reference compound]”, the toxicity in the series with HS-68 and Hela cells is on record as over 70%.

B1: CADY-2 (Ac-…-Cya) (peptide)
peptide: Ac-GLWRALWRALWRSLWKLKWKV-Cysteamide
For B1, in series [1], the Kd turned out to be 19 nM and the ratio at saturation (cargo/CADY molar ratio) is 0.05.

Source of the values: patent EP1795539B1, “Cell penetrating peptides for intracellular delivery of molecules” (Centre National de la Recherche Scientifique, priority 2005, dated 2007).
